From patent publication US20200216906A1, “METHODS AND COMPOSITIONS RELATING TO THE DIAGNOSIS AND TREATMENT OF CANCER” (PRESIDENT AND FELLOWS OF HARVARD COLLEGE, priority 2015, published 2020)
Entries after “also recorded” stand apart in the source; their conditions may differ. Read-outs that look alike come from different tables or passages of the source.

Key:
[1] = tested on: Panc02.13 cells expressing the YAPS6A mutant; assay: 3D spheroid growth assay, Panc02.13 cells expressing YAPS6A; assay type: cell-based, human; conditions: YAP activity increased
Panc02.13 cells = assay: 3D spheroid growth assay, Panc02.13 (GFP/parental) cells; conditions: Hippo-YAP pathway active
Method: Cancer cell lines were seeded at a 5×10^3 cells per well in a 96-well ultra-low adherence plates (Costar) and briefly spun down at 1000 rpm for 5 minutes. After 2 days, cells were treated with small molecule inhibitors at varying concentrations. Growth of spheroids was monitored using live cell imaging every 2-3 hours for 4-7 days in the Incucyte FLR™ system (Essen) or as end point assay using CellTiter-Glo™ luminescent cell viability assay (Promega).
A dose response curve for each inhibitor is calculated based on control (no inhibitor/DMSO) treated wells.
Cancer cell lines were seeded at a 5×10^3 cells per well in a 96-well ultra-low adherence plates (Costar) and briefly spun down at 1000 rpm for 5 minutes. After 2 days, cells were treated with small molecule inhibitors at varying concentrations. Growth of spheroids was monitored using live cell imaging every 2-3 hours for 4-7 days in the Incucyte ZOOM™ system (Essen) or as end point assay using CellTiter-Glo™ luminescent cell viability assay (Promega).

[2] = tested on: pancreatic cancer cell lines; assay: Kinetic cell growth assay, panel of pancreatic cancer cell lines; assay type: cell-based, human
Method: (§1) The effect of gemcitabine on pancreatic cancer cell growth was studied using a kinetic cell growth assay. Pancreatic cancer cells were plated on 96-well plates (Essen ImageLock, Essen Instruments, MI, US) at varying densities (2-4×10^3 for low density or 15-20×10^3 for high density experiments). Small molecule inhibitors at different doses were added 24 hours after plating and cell confluence was monitored with Incucyte Live-Cell Imaging System and software (Essen Instruments). Confluence was observed every hour for 48-144h or until the control (DMSO only) samples reached 100% confluence.
FIG. 20A illustrates the kinetic cell growth assay to determine the effect of gemcitabine in a panel of pancreatic cancer cell lines. Cells are plated at low crowding conditions (10-25% confluence) and 24 hours later exposed to gemcitabine in a dose-dependent manner. They are imaged every 1-3 hours until control (vehicle) treated cells reach 100% confluence. This assay is not confounded by the fact that the time required for each cell line to reach 100% confluence may be very different (as the cell lines have different doubling times). A dose response effect of gemcitabine on cell growth for 16 pancreatic cancer cell lines is shown in FIGS. 20B, 3, 31A-31C and 28, where the range of previous studies is also shown. […] Similar responses to gemcitabine were found in liver cancer cell lines (Huh7 and FOCUS) and untransformed (HEK293) cell lines (FIGS. 3, 31A-31C).
as §1, with “Kinetic Cell growth assay. The” for “The”, “(2-4X103” for “(2-4×10^3”, “15-20X103” for “15-20×10^3”, “Incucyte™” for “Incucyte”

[3] = tested on: Panc02.13 cells expressing vector only (02.13-WT); assay: Kinetic cell growth assay, Panc02.13 cells expressing vector only; assay type: cell-based, human
Method: (§2) Panc02.13 cells were used to express YAPS6A (or vector controls) under sparse and dense cultures. Expression was confirmed by confocal microscopy (data not shown). Suppression of the Hippo pathway by expression of non-phospho, active form of YAP (YAPS6A) sensitized pancreatic cancer cells to gemcitabine and 5-FU (FIGS. 6 and 7). Apoptosis was measured by immunobloting with cleaved caspases 3/7 or PARP. Blots were also stained with anti-β-actin for loading control. The effect of Hippo pathway suppression on gemcitabine and 5-FU senstitization was maintained in 3D spheroid culture (FIG. 8). The effects of eleven cytotoxic drugs on the growth of Panc02.13 cells expressing vector only or YAPS6A construct grown under low or high densities were determined (Table 1).
as §1
as §1, with “Kinetic Cell growth assay. The” for “The”, “(2-4X103” for “(2-4×10^3”, “15-20X103” for “15-20×10^3”, “Incucyte™” for “Incucyte”

[4] = tested on: Panc02.13 cells expressing YAPS6A construct; assay: Kinetic cell growth assay, Panc02.13 cells expressing YAPS6A; assay type: cell-based, human; conditions: YAPS6A construct
Method: as §2, §1
Cell lines (Panc02.13, Panc10.05 or Miapaca2) were transfected with YAPS6A constructs (Addgene) using Lipofectamine™ (Invitrogen, Carlsbad, Calif.) following the manufacturer's instructions and 48 hour post-transfection selected in 5-10 μg/ml Blasticidin (InvivoGen, San Diego, Calif.). The clones screened for YAPS6A expression by Western blot. Stable cell lines were maintained in complete medium and 5 μg/ml Blasticidin.
as §1, with “Kinetic Cell growth assay. The” for “The”, “(2-4X103” for “(2-4×10^3”, “15-20X103” for “15-20×10^3”, “Incucyte™” for “Incucyte”

[5] = tested on: patient-derived xenograft (PDX) models; assay: Patient-derived xenograft (PDX) models, tumor growth inhibition; assay type: in vivo, mouse; conditions: PDX models
Excerpt: An alternative to an endogenous mouse models for capturing effects of the tumor environment are patient-derived xenograft (PDX) models. […] At the cellular level, PDX models also preserve the intra-tumoral heterogeneity, as well as the molecular characteristics of the original cancer, including copy number variants, single-nucleotide polymorphisms, and gene expression profiles (Choi et al., 2014; DeRose et al., 2011). […] When patient-derived xenograft PDX models were used to assess whether YAP activation sensitizes solid tumors to gemcitabine significant effects were found. The studies were performed in the following manner: Tumor fragments (around 64 mm^3) were implanted into the flanks of recipient mice and tumor dimensions recorded with digital calipers. Once tumor implants reached a volume of approximately 200 mm3, dosing with gemcitabine (or vehicle control) began. At the completion of the study completion, the percent tumor growth inhibition (% TGI) was calculated for gemcitabine (G) and the vehicle control (C) using initial (i) and final (f) tumor measurements by the formula: % TGI=[1−(Gf−Gi)/(Cf−Ci)]x100.
Patient-derived xenograft (PDX) models. PDX models were established by Champions Oncology (Baltimore, Md.) as described previously (Khor et al., 2015). Drug response to 20 PDX models was obtained from Champions TumorGraft® Database (available on the world wide web at database.championsoncology.com/).
Immunohistochemistry. Human primary tumor tissue slides were obtained from Champions Oncology (Baltimore, Md.). Immunohistochemistry using anti YAP1 antibody (Abcam Cat # ab52771) was performed as previously described (Shi et al., 1999). For negative controls, primary antibody was omitted. The intensity of YAP staining was assessed by an independent pathologist using a four-grade scale: “0” is negative. “0.5” is borderline staining with no significance. “1” is weak staining. “1.5” is weak staining with foci of moderate staining. “2” is moderate staining. […] YAP scoring index was calculated based on staining intensity * % of positive target cells.

ABCG2 = molecular target: T1, ABCG2 (Homo sapiens, UniProt Q9UNQ0); conditions: Cusatis and Sparreboom, 2008; cited from earlier work
T1 sequence (Q9UNQ0 1-655): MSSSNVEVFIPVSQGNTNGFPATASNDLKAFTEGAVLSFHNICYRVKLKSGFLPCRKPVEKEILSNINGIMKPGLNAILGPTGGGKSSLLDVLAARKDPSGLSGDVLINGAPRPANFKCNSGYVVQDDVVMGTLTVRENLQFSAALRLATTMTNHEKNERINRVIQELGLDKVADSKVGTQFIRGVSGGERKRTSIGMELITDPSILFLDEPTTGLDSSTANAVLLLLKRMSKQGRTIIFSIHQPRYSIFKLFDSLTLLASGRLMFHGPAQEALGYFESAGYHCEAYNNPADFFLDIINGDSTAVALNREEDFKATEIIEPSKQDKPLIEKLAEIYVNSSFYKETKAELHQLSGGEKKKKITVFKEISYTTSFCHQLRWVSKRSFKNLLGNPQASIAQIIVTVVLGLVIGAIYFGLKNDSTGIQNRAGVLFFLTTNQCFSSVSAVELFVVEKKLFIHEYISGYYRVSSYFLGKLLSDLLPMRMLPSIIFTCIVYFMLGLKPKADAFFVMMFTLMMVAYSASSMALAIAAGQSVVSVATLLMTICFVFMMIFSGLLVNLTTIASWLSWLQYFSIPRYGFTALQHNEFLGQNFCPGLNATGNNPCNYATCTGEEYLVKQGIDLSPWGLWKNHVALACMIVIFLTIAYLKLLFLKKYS

[6] = Homo sapiens, high density, read-out: High density (EC50, nM) 02.13-WT
[7] = Homo sapiens, low density, read-out: Low density (EC50, nM) 02.13-WT
[8] = Homo sapiens, high density, read-out: High density (EC50, nM) 02.13-YAPS6A
[9] = Homo sapiens, low density, read-out: Low density (EC50, nM) 02.13-YAPS6A

## COc1cccc2c1C(=O)c1c(O)c3c(c(O)c1C2=O)C[C@@](O)(C(=O)CO)C[C@@H]3O[C@H]1C[C@H](N)[C@H](O)[C@H](C)O1 [Doxorubicin]
[1]
  Efficacy in inhibiting cell growth when the Hippo pathway was inhibited: increased efficacy in inhibiting cell growth
Panc02.13 cells
  Efficacy in inhibiting cell growth when the Hippo pathway was not inhibited: efficacious in inhibiting cell growth
[2]; seven PDAC cell lines, threshold >100 fold difference in EC50
  Dependence of cellular response on cell crowding: dependent on cell crowding
[2]; seven pancreatic cancer cell lines, sparse and dense conditions
  Density dependence of efficacy: density-dependent
[3]; [6]
  EC50: 386 nM
[3]; [7]
  EC50: 35 nM
[4]; [8]
  EC50: 133 nM
[4]; [9]
  EC50: 68 nM

## N.N.O=C([O-])C1(C(=O)[O-])CCC1.[Pt+2] [carboplatin]
[5]
  % TGI dependence on YAP activity: not affected by YAP activity

## CC[C@@]1(O)C(=O)OCc2c1cc1n(c2=O)Cc2cc3c(CN(C)C)c(O)ccc3nc2-1 [topotecan]
[1]
  Efficacy in inhibiting cell growth when the Hippo pathway was inhibited: increased efficacy in inhibiting cell growth
ABCG2
  Substrate of ABCG2: substrates of ABCG2

## CN(Cc1cnc2nc(N)nc(N)c2n1)c1ccc(C(=O)N[C@@H](CCC(=O)O)C(=O)O)cc1 [methotrexate]
[1]
  Efficacy in inhibiting cell growth when the Hippo pathway was inhibited: increased efficacy in inhibiting cell growth; also recorded: particularly significant inhibitory activity
ABCG2
  Substrate of ABCG2: substrates of ABCG2

## N.N.[Cl][Pt][Cl] [Cisplatin]
[5]
  % TGI dependence on YAP activity: not affected by YAP activity
[3]; high density, read-out: High density (EC50, nM) 02.13-WT
  EC50: > 10000 nM
[3]; low density, read-out: Low density (EC50, nM) 02.13-WT
  EC50: > 10000 nM
[4]; high density, read-out: High density (EC50, nM) 02.13-YAPS6A
  EC50: > 10000 nM
[4]; low density, read-out: Low density (EC50, nM) 02.13-YAPS6A
  EC50: > 10000 nM

## Nc1nc(Cl)nc2c1ncn2[C@H]1C[C@H](O)[C@@H](CO)O1 [cladribine]
[1]
  Efficacy in inhibiting cell growth when the Hippo pathway was inhibited: increased efficacy in inhibiting cell growth; also recorded: particularly significant inhibitory activity
ABCG2
  Substrate of ABCG2: substrates of ABCG2

## O=C1c2c(O)ccc(O)c2C(=O)c2c(NCCNCCO)ccc(NCCNCCO)c21 [mitoxantrone]
[1]
  Efficacy in inhibiting cell growth when the Hippo pathway was inhibited: increased efficacy in inhibiting cell growth; also recorded: particularly significant inhibitory activity
ABCG2
  Substrate of ABCG2: substrates of ABCG2

## COc1cccc2c1C(=O)c1c(O)c3c(c(O)c1C2=O)C[C@@](O)(C(=O)CO)C[C@@H]3O[C@H]1C[C@H](N)[C@@H](O)[C@H](C)O1 [epirubicin]
[1]
  Efficacy in inhibiting cell growth when the Hippo pathway was inhibited: increased efficacy in inhibiting cell growth
Panc02.13 cells
  Efficacy in inhibiting cell growth when the Hippo pathway was not inhibited: efficacious in inhibiting cell growth
ABCG2
  Substrate of ABCG2: substrates of ABCG2

## COc1cc([C@@H]2c3cc4c(cc3[C@@H](O[C@@H]3O[C@@H]5CO[C@@H](c6cccs6)O[C@H]5[C@H](O)[C@H]3O)[C@H]3COC(=O)[C@H]23)OCO4)cc(OC)c1O [teniposide]
[1]
  Efficacy in inhibiting cell growth when the Hippo pathway was inhibited: increased efficacy in inhibiting cell growth; also recorded: particularly significant inhibitory activity
ABCG2
  Substrate of ABCG2: substrates of ABCG2

## COc1cc([C@@H]2c3cc4c(cc3[C@@H](O[C@@H]3O[C@@H]5CO[C@@H](C)O[C@H]5[C@H](O)[C@H]3O)[C@H]3COC(=O)[C@H]23)OCO4)cc(OC)c1O [Etoposide]
[1]
  Efficacy in inhibiting cell growth when the Hippo pathway was inhibited: particularly significant inhibitory activity
[1]; listed as etopiside
  Efficacy in inhibiting cell growth when the Hippo pathway was inhibited: increased efficacy in inhibiting cell growth
[3]; [6]
  EC50: 2600 nM
[3]; [7]
  EC50: 386 nM
[4]; [8]
  EC50: 942 nM
[4]; [9]
  EC50: 383 nM
ABCG2
  Substrate of ABCG2: substrates of ABCG2
